Reference: US8802597B2, “Herbicidal pyrimidines” (E I du Pont de Nemours and Company, priority 2003, dated 2014)

What was measured:
Test in all cases: Test F pre/postemergence
Type in all cases: in vivo
[1] = tested on: annual bluegrass (Poa annua)
Excerpt: (§1) Seeds or nutlets of plant species selected from (turf) bermudagrass (Cynodon dactylon), Kentucky bluegrass (Poa pratensis), bentgrass (Agrostis palustris), hard fescue (Festuca ovina), large crabgrass (Digitaria sanguinalis), goosegrass (Eleusine indica), dallisgrass (Paspalum dilatatum), annual bluegrass (Poa annua), common chickweed (Stellaria media), dandelion (Taraxacum officinale), white clover (Trifolium repens), and yellow nutsedge (Cyperus esculentus) were planted and treated preemergence with the test chemical formulated in a non-phytotoxic solvent mixture which included a surfactant.
(§2) At the same time, plants selected from these crop and weed species were treated with postemergence applications of the test chemical formulated in the same manner. Plants ranged in height from 2 to 18 cm (1- to 4-leaf stage) for postemergence treatments. Treated plants and controls were maintained in a greenhouse for 12 to 14 days, after which time all species were compared to controls and visually evaluated. Plant response ratings, summarized in Table F, are based on a scale of 0 to 100 where 0 is no effect and 100 is complete control. A dash (-) response means no test result.

[2] = tested on: dallisgrass (Paspalum dilatatum)
Excerpt: as §1, §2

[3] = tested on: yellow nutsedge (Cyperus esculentus)
Excerpt: as §1, §2

[4] = tested on: white clover (Trifolium repens)
Excerpt: as §1, §2

[5] = tested on: dandelion (Taraxacum officinale)
Excerpt: as §1, §2

[6] = tested on: goosegrass (Eleusine indica)
Excerpt: as §1, §2

With `CCOC(=O)c1nc(C2CC2)nc(N)c1Br` [Compound 1, ethyl 6-amino-5-bromo-2-cyclopropyl-4-pyrimidinecarboxylate] the “Plant response rating (0 to 100 scale)” value ([1]; Postemergence, 31 g ai/ha) was 35, the “Plant response rating (0 to 100 scale)” value ([1]; Postemergence, 125 g ai/ha) was 45 and the “Plant response rating (0 to 100 scale)” value ([1]; Postemergence, 250 g ai/ha) was 70. For the same compound, the “Plant response rating (0 to 100 scale)” value ([1]; Postemergence, 500 g ai/ha) was 95, the “Plant response rating (0 to 100 scale)” value ([1]; Preemergence, 31 g ai/ha) was 20 and the “Plant response rating (0 to 100 scale)” value ([1]; Preemergence, 62 g ai/ha) was 65. For the same compound, the “Plant response rating (0 to 100 scale)” value ([1]; Preemergence, 125 g ai/ha) was 45, the “Plant response rating (0 to 100 scale)” value ([1]; Preemergence, 250 g ai/ha) was 70 and the “Plant response rating (0 to 100 scale)” value ([1]; Preemergence, 500 g ai/ha) was 70. For the same compound, the “Plant response rating (0 to 100 scale)” value ([2]; Postemergence, 31 g ai/ha) was 0, the “Plant response rating (0 to 100 scale)” value ([2]; Postemergence, 62 g ai/ha) was 0 and the “Plant response rating (0 to 100 scale)” value ([2]; Postemergence, 125 g ai/ha) was 15. For the same compound, the “Plant response rating (0 to 100 scale)” value ([2]; Postemergence, 250 g ai/ha) was 75, the “Plant response rating (0 to 100 scale)” value ([2]; Postemergence, 500 g ai/ha) was 60 and the “Plant response rating (0 to 100 scale)” value ([2]; Preemergence, 31 g ai/ha) was 10. The “Plant response rating (0 to 100 scale)” value ([2]; Preemergence, 62 g ai/ha) was 35, the “Plant response rating (0 to 100 scale)” value ([2]; Preemergence, 125 g ai/ha) was 45 and the “Plant response rating (0 to 100 scale)” value ([2]; Preemergence, 250 g ai/ha) was 70. The “Plant response rating (0 to 100 scale)” value ([2]; Preemergence, 500 g ai/ha) was 95, the “Plant response rating (0 to 100 scale)” value ([3]; Postemergence, 31 g ai/ha) was 0 and the “Plant response rating (0 to 100 scale)” value ([3]; Postemergence, 62 g ai/ha) was 10. For the same compound, the “Plant response rating (0 to 100 scale)” value ([3]; Postemergence, 125 g ai/ha) was 10, the “Plant response rating (0 to 100 scale)” value ([3]; Postemergence, 250 g ai/ha) was 15 and the “Plant response rating (0 to 100 scale)” value ([3]; Postemergence, 500 g ai/ha) was 15. For the same compound, the “Plant response rating (0 to 100 scale)” value ([3]; Preemergence, 31 g ai/ha) was 0, the “Plant response rating (0 to 100 scale)” value ([3]; Preemergence, 62 g ai/ha) was 15 and the “Plant response rating (0 to 100 scale)” value ([3]; Preemergence, 125 g ai/ha) was 30. For the same compound, the “Plant response rating (0 to 100 scale)” value ([3]; Preemergence, 250 g ai/ha) was 25, the “Plant response rating (0 to 100 scale)” value ([3]; Preemergence, 500 g ai/ha) was 70 and the “Plant response rating (0 to 100 scale)” value ([4]; Postemergence, 31 g ai/ha) was 70. For the same compound, the “Plant response rating (0 to 100 scale)” value ([4]; Postemergence, 62 g ai/ha) was 90, the “Plant response rating (0 to 100 scale)” value ([4]; Postemergence, 125 g ai/ha) was 100 and the “Plant response rating (0 to 100 scale)” value ([4]; Postemergence, 250 g ai/ha) was 100. The “Plant response rating (0 to 100 scale)” value ([4]; Postemergence, 500 g ai/ha) was 100, the “Plant response rating (0 to 100 scale)” value ([4]; Preemergence, 31 g ai/ha) was 80 and the “Plant response rating (0 to 100 scale)” value ([4]; Preemergence, 62 g ai/ha) was 100. For the same compound, the “Plant response rating (0 to 100 scale)” value ([4]; Preemergence, 125 g ai/ha) was 100, the “Plant response rating (0 to 100 scale)” value ([4]; Preemergence, 250 g ai/ha) was 100 and the “Plant response rating (0 to 100 scale)” value ([4]; Preemergence, 500 g ai/ha) was 100. The “Plant response rating (0 to 100 scale)” value ([5]; Postemergence, 31 g ai/ha) was 50, the “Plant response rating (0 to 100 scale)” value ([5]; Postemergence, 62 g ai/ha) was 75 and the “Plant response rating (0 to 100 scale)” value ([5]; Postemergence, 125 g ai/ha) was 75. The “Plant response rating (0 to 100 scale)” value ([5]; Postemergence, 250 g ai/ha) was 85, the “Plant response rating (0 to 100 scale)” value ([5]; Postemergence, 500 g ai/ha) was 95 and the “Plant response rating (0 to 100 scale)” value ([5]; Preemergence, 31 g ai/ha) was 35. For the same compound, the “Plant response rating (0 to 100 scale)” value ([5]; Preemergence, 62 g ai/ha) was 95, the “Plant response rating (0 to 100 scale)” value ([5]; Preemergence, 125 g ai/ha) was 100 and the “Plant response rating (0 to 100 scale)” value ([5]; Preemergence, 250 g ai/ha) was 100. The “Plant response rating (0 to 100 scale)” value ([5]; Preemergence, 500 g ai/ha) was 100, the “Plant response rating (0 to 100 scale)” value ([6]; Postemergence, 31 g ai/ha) was 5 and the “Plant response rating (0 to 100 scale)” value ([6]; Postemergence, 62 g ai/ha) was 10. For the same compound, the “Plant response rating (0 to 100 scale)” value ([6]; Postemergence, 125 g ai/ha) was 35, the “Plant response rating (0 to 100 scale)” value ([6]; Postemergence, 250 g ai/ha) was 40 and the “Plant response rating (0 to 100 scale)” value ([6]; Postemergence, 500 g ai/ha) was 50. The “Plant response rating (0 to 100 scale)” value ([6]; Preemergence, 31 g ai/ha) was 30, the “Plant response rating (0 to 100 scale)” value ([6]; Preemergence, 62 g ai/ha) was 40 and the “Plant response rating (0 to 100 scale)” value ([6]; Preemergence, 125 g ai/ha) was 30. For the same compound, the “Plant response rating (0 to 100 scale)” value ([6]; Preemergence, 250 g ai/ha) was 65 and the “Plant response rating (0 to 100 scale)” value ([6]; Preemergence, 500 g ai/ha) was 85.
